From patent US20250195463A1, “ORGANOMETALLIC COMPLEX, CONTROLLED-RELEASE MULTI-FUNCTIONAL DRUG, PHARMACEUTICAL COMPOSITION, PROCESSES FOR THE PREPARATION THEREOF AND THEIR USE” (FACULDADE DE CIÊNCIAS DA UNIVERSIDADE DE LISBOA, priority 2022, published 2025)

How the values were obtained:
[1] = Stability in organic medium (dimethyl sulfoxide) by UV-Vis spectroscopy; format: physicochemical; settings: for Relative variation of the maximum absorbance of the π→π* transitions: band 289-300 nm (λmax in column head); for Relative variation of the maximum absorbance of the charge transfer bands: band 357-425 nm (λmax in column head)
How it was run: (§1)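 UV-Vis spectra (270-900 nm) were recorded at intervals from 0 to 24 h, at room temperature in the dark. Solvents were 100% DMSO, or 5% or 10% DMSO in DMEM depending on complex, at 7.0×10^-5 M to 3.0×10^-4 M.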

[2] = Stability in aqueous medium (dimethyl sulfoxide/Dulbecco's Modified Eagle Medium) by UV-Vis spectroscopy; format: physicochemical; settings: 5% dimethyl sulfoxide/95% Dulbecco's Modified Eagle Medium; for Relative variation of the maximum absorbance of the π→π* transitions: band 292-296 nm (λmax in column head); for Relative variation of the maximum absorbance of the charge transfer bands: band 358-400 nm (λmax in column head)
How it was run: as §1

MDA-MB-231 (FGFR−) = experiment: MTT cytotoxicity assay; settings: MDA-MB-231
Method: By way of example, the in vitro cytotoxicity of the conjugate RuPC1, complex 4 and peptide P2 was determined in four human breast cancer cell lines with different levels of expression of the receptor FGFR, namely MDA-MB-231 (FGFR−), MCF-7 (FGFR−), SK-BR-3 (FGFR+), and MDA-MB-134-VI (FGFR+). The cytotoxicity of RuPC1 was also determined in the stated cell lines at controlled pH 6.8 and 7.4. The cytotoxicity of the complexes 5, 8, 9, and the reference complex (2,2′-bipyridyl)(triphenylphosphane)(f-cyclopentadienyl)ruthenium(II) trifluoromethanesulfonate, [RuCp(PPh3)(bipy)][CF3SO3] (TM34) was only determined in the cell line MDA-MB-231. All the cell lines were from the American Type Culture Collection (ATCC) and were cultured in Dulbecco's Modified Eagle Medium+Glutamax-I (Gibco) supplemented with 10% fetal bovine serum (FBS) and 1% antibiotics, excepting the MDA-MB-134-VI for which it was used the double amount of FBS. The cell cultures were kept in an incubator Heraeus at 37° C. under humidified atmosphere at 5% CO2. The cell viability was evaluated resorting to the MTT ([3-(4,5-dimethylthiazol-2-yl)-2,5-diphenyltetrazolium bromide]) colorimetric assay, which is based on the reduction of the tetrazolium salt to purple formazan by mitochondrial dehydrogenases in metabolically active cells. For the assays, the cells were seeded in 96-well plates (2×10^4 to 3×10^4 cells/200 μL) and allowed to adhere overnight. The compounds were first dissolved in dimethyl sulfoxide to obtain 10 mM stock solutions, further used to prepare the working solutions, at 0.1 to 100 μM, by dilution in the cell culture medium. Alternatively, for the assays at controlled pH 6.8 and 7.4, RuPC1 was first dissolved in a solution of 15% dimethyl sulfoxide/85% phosphate buffer (10 mM in water) to obtain 1.5 mM stock solutions further incubated for 48 hours at both pH values prior to be used to prepare the working solutions, at 0.1 to 50 μM, by dilution in the cell culture medium. In both cases, after continuous exposure of the cells to the compounds for 48 h at 37° C., the medium was removed and the cells were incubated with 200 μL of MTT solution (0.5 mg/mL) for 3 h. Then, the solution was discarded and the purple formazan formed by the viable cells was dissolved in 200 μL of dimethyl sulfoxide. The cell viability (%) was determined relative to the control (cells incubated without compounds) by measuring the absorbance at 570 nm on a PowerWave Xs Bio-Tek Instruments plate spectrophotometer. The respective values of the half maximal inhibitory concentration (IC50) were calculated with the software GraphPad Prism. All the compounds were tested in at least two independent experiments, each comprising six replicates per concentration.

SMILES: CCC(=O)C1=C[CH]([Ru-]2([PH](c3ccccc3)(c3ccccc3)c3ccccc3)[n+]3ccccc3-c3cccc[n+]32)C=C1.O=S(=O)([O-])C(F)(F)F (stereo not shown) [compound 8]
- Relative variation of the maximum absorbance of the π→π* transitions ([1]; time 0 h): 0.0%
- Relative variation of the maximum absorbance of the charge transfer bands ([1]; time 0 h): 0.0%
- Relative variation of the maximum absorbance of the π→π* transitions ([1]; time 0.25 h): 0.0%
- Relative variation of the maximum absorbance of the charge transfer bands ([1]; time 0.25 h): 0.0%
- Relative variation of the maximum absorbance of the π→π* transitions ([1]; time 0.5 h): 0.2%
- Relative variation of the maximum absorbance of the charge transfer bands ([1]; time 0.5 h): 0.1%
- Relative variation of the maximum absorbance of the π→π* transitions ([1]; time 0.75 h): 0.0%
- Relative variation of the maximum absorbance of the charge transfer bands ([1]; time 0.75 h): 0.0%
- Relative variation of the maximum absorbance of the π→π* transitions ([1]; time 1 h): 0.1%
- Relative variation of the maximum absorbance of the charge transfer bands ([1]; time 1 h): 0.3%
- Relative variation of the maximum absorbance of the π→π* transitions ([1]; time 2 h): 0.0%
- Relative variation of the maximum absorbance of the charge transfer bands ([1]; time 2 h): 0.2%
- Relative variation of the maximum absorbance of the π→π* transitions ([1]; time 3 h): −0.3%
- Relative variation of the maximum absorbance of the charge transfer bands ([1]; time 3 h): 0.0%
- Relative variation of the maximum absorbance of the π→π* transitions ([1]; time 4 h): −0.1%
- Relative variation of the maximum absorbance of the charge transfer bands ([1]; time 4 h): 0.0%
- Relative variation of the maximum absorbance of the π→π* transitions ([1]; time 5 h): −0.1%
- Relative variation of the maximum absorbance of the charge transfer bands ([1]; time 5 h): −0.3%
- Relative variation of the maximum absorbance of the π→π* transitions ([1]; time 6 h): −0.2%
- Relative variation of the maximum absorbance of the charge transfer bands ([1]; time 6 h): 0.3%
- Relative variation of the maximum absorbance of the π→π* transitions ([1]; time 24 h): −0.2%
- Relative variation of the maximum absorbance of the charge transfer bands ([1]; time 24 h): 0.2%
- Relative variation of the maximum absorbance of the π→π* transitions ([2]; time 0 h): 0.0%
- Relative variation of the maximum absorbance of the charge transfer bands ([2]; time 0 h): 0.0%
- Relative variation of the maximum absorbance of the π→π* transitions ([2]; time 0.25 h): −0.1%
- Relative variation of the maximum absorbance of the charge transfer bands ([2]; time 0.25 h): −0.3%
- Relative variation of the maximum absorbance of the π→π* transitions ([2]; time 0.5 h): −0.2%
- Relative variation of the maximum absorbance of the charge transfer bands ([2]; time 0.5 h): −0.6%
- Relative variation of the maximum absorbance of the π→π* transitions ([2]; time 0.75 h): 0.0%
- Relative variation of the maximum absorbance of the charge transfer bands ([2]; time 0.75 h): −0.7%
- Relative variation of the maximum absorbance of the π→π* transitions ([2]; time 1 h): −0.1%
- Relative variation of the maximum absorbance of the charge transfer bands ([2]; time 1 h): −0.9%
- Relative variation of the maximum absorbance of the π→π* transitions ([2]; time 2 h): 0.0%
- Relative variation of the maximum absorbance of the charge transfer bands ([2]; time 2 h): −0.7%
- Relative variation of the maximum absorbance of the π→π* transitions ([2]; time 3 h): 0.1%
- Relative variation of the maximum absorbance of the charge transfer bands ([2]; time 3 h): −0.6%
- Relative variation of the maximum absorbance of the π→π* transitions ([2]; time 4 h): 0.0%
- Relative variation of the maximum absorbance of the charge transfer bands ([2]; time 4 h): −0.6%
- Relative variation of the maximum absorbance of the π→π* transitions ([2]; time 5 h): 0.1%
- Relative variation of the maximum absorbance of the charge transfer bands ([2]; time 5 h): −0.6%
- Relative variation of the maximum absorbance of the π→π* transitions ([2]; time 6 h): 0.1%
- Relative variation of the maximum absorbance of the charge transfer bands ([2]; time 6 h): −0.5%
- Relative variation of the maximum absorbance of the π→π* transitions ([2]; time 24 h): 6.0%
- Relative variation of the maximum absorbance of the charge transfer bands ([2]; time 24 h): −0.9%
- IC50 range in words (MDA-MB-231 (FGFR−); Example 24): sub-micromolar range
- IC50 (MDA-MB-231 (FGFR−); read-out: Cytotoxic activity expressed as IC50, Table 5, 48 h, 37° C.): 560 nM
